Experimental data taken from PubChem BioAssay (NCI).
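Grown in 96-well plates, cells were treated for 48 hours with each compound at five concentrations. Insufficient inhibition: endpoint recorded as highest concentration tested. TGI: total growth inhibition.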

How the values were obtained:
Experiment in all cases: NCI tumour cell line growth inhibition, 48 h
[1] = system: 786-0 renal
[2] = system: A498 renal
[3] = system: A549 NSCLC
[4] = system: ACHN renal
[5] = system: BT-549 breast
[6] = system: CAKI-1 renal
[7] = system: CCRF-CEM leukemia
[8] = system: COLO 205 colon
[9] = system: DU-145 prostate
[10] = system: EKVX NSCLC
[11] = system: HCC-2998 colon
[12] = system: HCT-116 colon
[13] = system: HCT-15 colon
[14] = system: HL-60(TB) leukemia
[15] = system: HOP-62 NSCLC
[16] = system: HOP-92 NSCLC
[17] = system: HS 578T breast
[18] = system: HT29 colon
[19] = system: IGROV1 ovarian
[20] = system: KM12 colon
[21] = system: LOX IMVI melanoma
[22] = system: M14 melanoma
[23] = system: MALME-3M melanoma
[24] = system: MCF7 breast
[25] = system: MDA-MB-231 breast
[26] = system: MDA-MB-435
[27] = system: MDA-N
[28] = system: NCI-H23 lung
[29] = system: NCI-H460 lung
[30] = system: NCI-H522 lung
[31] = system: NCI/ADR-RES ovarian
[32] = system: OVCAR-3 ovarian
[33] = system: OVCAR-4 ovarian
[34] = system: OVCAR-5 ovarian
[35] = system: OVCAR-8 ovarian
[36] = system: PC-3 prostate
[37] = system: RPMI-8226 leukemia
[38] = system: RXF 393 renal
[39] = system: SF-268 CNS
[40] = system: SF-295 CNS
[41] = system: SF-539 CNS
[42] = system: SK-MEL-2 melanoma
[43] = system: SK-MEL-28 melanoma
[44] = system: SK-MEL-5 melanoma
[45] = system: SK-OV-3 ovarian
[46] = system: SN12C renal
[47] = system: SNB-19 CNS
[48] = system: SNB-75 CNS
[49] = system: SW-620 colon
[50] = system: T-47D breast
[51] = system: TK-10 renal
[52] = system: U251 CNS
[53] = system: UACC-257 melanoma
[54] = system: UACC-62 melanoma
[55] = system: UO-31 renal
[56] = system: K-562 leukemia
[57] = system: MOLT-4 leukemia
[58] = system: NCI-H226 lung

SMILES: OCCNc1ncnc2c1ncn2C1OC(CO)C(O)C1O (centres undefined)
- TGI [1]: > 100 µM
- TGI [2]: > 100 µM
- TGI [3]: > 100 µM
- TGI [4]: > 100 µM
- TGI [5]: > 100 µM
- TGI [6]: > 100 µM
- TGI [7]: > 100 µM
- TGI [8]: > 100 µM
- TGI [9]: 67.7 µM
- TGI [10]: > 100 µM
- TGI [11]: > 100 µM
- TGI [12]: > 100 µM
- TGI [13]: > 100 µM
- TGI [14]: > 100 µM
- TGI [15]: > 100 µM
- TGI [16]: > 100 µM
- TGI [17]: > 100 µM
- TGI [18]: > 100 µM
- TGI [19]: > 100 µM
- TGI [20]: > 100 µM
- TGI [21]: > 100 µM
- TGI [22]: > 100 µM
- TGI [23]: > 100 µM
- TGI [24]: > 100 µM
- TGI [25]: 89.4 µM
- TGI [26]: > 100 µM
- TGI [27]: > 100 µM
- TGI [28]: > 100 µM
- TGI [29]: > 100 µM
- TGI [30]: > 100 µM
- TGI [31]: > 100 µM
- TGI [32]: > 100 µM
- TGI [33]: > 100 µM
- TGI [34]: > 100 µM
- TGI [35]: > 100 µM
- TGI [36]: > 100 µM
- TGI [37]: > 100 µM
- TGI [38]: > 100 µM
- TGI [39]: > 100 µM
- TGI [40]: > 100 µM
- TGI [41]: > 100 µM
- TGI [42]: > 100 µM
- TGI [43]: > 100 µM
- TGI [44]: > 100 µM
- TGI [45]: > 100 µM
- TGI [46]: > 100 µM
- TGI [47]: > 100 µM
- TGI [48]: > 100 µM
- TGI [49]: > 100 µM
- TGI [50]: > 100 µM
- TGI [51]: > 100 µM
- TGI [52]: > 100 µM
- TGI [53]: > 100 µM
- TGI [54]: > 100 µM
- TGI [55]: > 100 µM

SMILES: CC(C)=C[C@@H]1C[C@H](C)c2c(O)cc(C)c3c2C1=C(C)C(=O)C3=O
- TGI [1]: 36.1 µM
- TGI [2]: 37.4 µM
- TGI [3]: 21.7 µM
- TGI [4]: 34.3 µM
- TGI [5]: 28.1 µM
- TGI [6]: 30.2 µM
- TGI [7]: 47.2 µM
- TGI [8]: 32.6 µM
- TGI [9]: 28.6 µM
- TGI [10]: 33 µM
- TGI [11]: 54.3 µM
- TGI [12]: 28.5 µM
- TGI [13]: 29.4 µM
- TGI [14]: 44.4 µM
- TGI [15]: 35.8 µM
- TGI [16]: 26.9 µM
- TGI [17]: 41.8 µM
- TGI [18]: 40.6 µM
- TGI [19]: 35.2 µM
- TGI [56]: 40.1 µM
- TGI [20]: 31.3 µM
- TGI [21]: 33.3 µM
- TGI [22]: 27 µM
- TGI [23]: 29.4 µM
- TGI [24]: 65.8 µM
- TGI [25]: 33.9 µM
- TGI [26]: 29.4 µM
- TGI [27]: 33.7 µM
- TGI [57]: > 100 µM
- TGI [58]: 33 µM
- TGI [28]: 32.5 µM
- TGI [29]: 48.8 µM
- TGI [30]: 28.8 µM
- TGI [31]: 49.6 µM
- TGI [32]: 32.1 µM
- TGI [33]: 23.4 µM
- TGI [34]: 62.2 µM
- TGI [35]: 35.2 µM
- TGI [36]: 23.6 µM
- TGI [37]: 41.6 µM
- TGI [39]: 31.4 µM
- TGI [40]: 30.4 µM
- TGI [41]: 32.3 µM
- TGI [43]: 29.8 µM
- TGI [44]: 26.5 µM
- TGI [45]: 30.9 µM
- TGI [46]: 28.3 µM
- TGI [47]: 29.1 µM
- TGI [48]: 31.4 µM
- TGI [49]: 32.4 µM
- TGI [51]: 45.9 µM
- TGI [52]: 26.7 µM
- TGI [53]: 37.5 µM
- TGI [54]: 29.6 µM
